Experiments:
[1] = Dissolution state in ethanol, visually confirmed; assay type: physicochemical; conditions: 20 mg crystal in 2 ml ethanol, stationarily placed at 30° C. for 2 hours
Experimental: 20 mg of each of the crystals was weighed, to which 2 ml of ethanol was added, followed by being stored by stationarily placed at 30° C. for 2 hours. The dissolution state was visually confirmed. Accordingly, it is appreciated that the crystal of the present invention is easily dissolved in the polar solvent.

[2] = system: Trichomonas vaginalis (clinically isolated strain); experiment: Direct effect on Trichomonas vaginalis culture, number of individuals counted on a hemocytometer; assay type: cell-based; conditions: 5.08 mg solid crystal added to Trichomonas medium F; culture of 3.93×10^5 individuals/mL; cultured at 37° C. for 4 days
Experimental: The direct effect of luliconazole was investigated by using Trichomonas vaginalis (clinically isolated strain). That is, there were prepared a sample in which 5.08 mg of luliconazole of Comparative Example 1 recrystallized from n-hexane and ethyl acetate was added to “Trichomonas medium F” (produced by Fuji Pharma Co., Ltd.), a sample in which 5.08 mg of the crystal of Example 2 was added, and a sample (control) in which 5 μL of water was added. […] of a culture of Trichomonas vaginalis of 3.93×10^5 individuals/mL was added thereto, followed by being cultured at 37° C. for 4 days, and the number of individuals of Trichomonas was counted on a hemocytometer. A significant difference was confirmed at a significance level of not more than 1% among the three samples. Accordingly, it is appreciated that the crystal of the present invention is excellent in the solid-state reactivity.

[3] = Tablet hardness measurement with hardness meter PTB311; assay type: physicochemical; conditions: tablet of 50% by mass lactose and 50% by mass luliconazole, tablet making pressure 1 ton/cm^2, 9 mmφ, average of six samples
Experimental: A tablet was manufactured in accordance with a formulation shown in Table 5 below, and the hardness was measured. PTB311 (produced by Pharma Test GmbH) was used as a hardness meter. As for the tablet making condition, the tablet making was performed at a tablet making pressure of 1 ton/cm^2 by using a pestle and a mortar of 9 mmφ. In Comparative Example, the operation was performed in the same manner as described above by using the crystal (Comparative Example 1) obtained by performing the recrystallization with n-hexane-ethyl acetate.

[4] = listed as crystal of Comp. Ex. 1

**Q.** For `N#C/C(=C1/SC[C@@H](c2ccc(Cl)cc2Cl)S1)n1ccnc1` [Example 1, luliconazole], which Dissolution state ([1]; listed as crystal of Example 1) is on record?
**A.** no crystal was found

**Q.** For `N#C/C(=C1/SC[C@@H](c2ccc(Cl)cc2Cl)S1)n1ccnc1` [Comp. Ex. 1, luliconazole, reference compound], which “number of individuals of Trichomonas (Average)” value [2] is on record?
**A.** 376000

**Q.** What about the Hardness [3, 4] of the same molecule?
**A.** 29.1 ± 3.0 N

**Q.** And the Dissolution state [1, 4]?
**A.** crystal was found at bottom

**Q.** With `N#C/C(=C1/SC[C@@H](c2ccc(Cl)cc2Cl)S1)n1ccnc1` [Example 2, luliconazole] as the molecule, how does the “number of individuals of Trichomonas (Average)” value [2] read?
**A.** 256000

**Q.** And the Hardness ([3]; listed as crystal of Example 2)?
**A.** 73.7 ± 4.2 N

**Q.** What about the Dissolution state ([1]; listed as crystal of Example 2) of the same molecule?
**A.** no crystal was found

Source: patent publication US9527836B2, “Crystal having specific crystal habit and pharmaceutical composition containing the crystal as active ingredient” (POLA PHARMA INC., priority 2013, dated 2016)
